From patent publication US20030153538A1, “Antitumor agent” (The Nisshin OilliO, Ltd., priority 2000, published 2003) come the findings set out here.

One test relates to B-16 melanoma cells. Description: Tests for tumor cell-proliferation-inhibitory effect and tumor cell-extinction (cell growth rate from viable cell count). The format is cell-based. As to conditions: for tumor cell-proliferation-inhibitory effect (in words): summary of Table 1; for tumor cell-killing effect (in words): at not less than 2 times the concentration required for proliferation inhibition. The procedure: The tumor cell-proliferation-inhibitory effect and the tumor cell-killing or extinction effect can be determined according to the following method using B-16 melanoma cells.
More specifically, B-16 melanoma cells are inoculated in each well of a 6-well plate in a desired amount, followed by allowing the plate to stand at 37° C. and 5% carbon dioxide concentration to thus cultivate the cells, adding a sample solution to be tested (maslinic acid, erythrodiol, ursolic acid, uvaol, betulinic acid, betulin and physiologically acceptable salts thereof or derivatives thereof) to each well in an amount sufficient for achieving a desired concentration, on the next day or after 5 days from the initiation of the cultivation, determination of viable cell count on the 6th day after the initiation of the cultivation and calculation of the cell growth rate based on the viable cell count to thus evaluate the tumor cell-proliferation-inhibitory effect and the tumor cell-killing effect.
Tests for determining the tumor cell-proliferation-inhibitory effect and the tumor cell-killing effect were conducted according to the following method. To a 6-well plate, a culture medium was dispensed in an amount of 2 mL/well, B-16 melanoma cells were then inoculated in a desired quantity and thereafter the melanoma cells were cultivated by allowing the plate or the culture medium to stand at 37° C. and a carbon dioxide concentration of 5%. On the following day, a test sample solution prepared was added to and admixed with the content of each well to a desired concentration and the cultivation of the melanoma cells was continued. The culture medium was then exchanged on the 5th day from the initiation of the cultivation and the test sample solution was again added to each well. On the next day, the culture medium was removed to recover the cultivated melanoma cells, followed by washing the cells with PBS (phosphate buffered saline), determination of the viable cell count, and then calculation of the cell growth rate according to the following equation 1. The tumor cell-proliferation-inhibitory effect and the tumor cell-killing effect of each test sample were evaluated on the basis of the cell growth rate thus determined.
Cell Growth Rate (%)=(A/B)×100
As comparative examples, oleanolic acid, β-amyrin, α-amyrin and lupeol were added to the culture medium to thus determine and evaluate the cell growth rate by the same method used above.

The test system of a further test is B16 melanoma cells. Description: Test for malignant melanoma metastasis-inhibitory effect (lung metastasis after i.v. injection of B16 melanoma cells). In kind it is in vivo, Whister female rats. As to conditions: rats; for RMI (rate of metastasis-inhibition): Oral Adm., every other day, lung lesions on 15th day. On the procedure: The tumor cell-metastasis-inhibitory effect can be evaluated according to, for instance, the malignant melanoma metastasis-inhibitory test. More specifically, a suspension of B16 melanoma cells prepared in advance is intravenously injected into Whister female rats, cotton seed oil in which each test substance is dissolved in a predetermined concentration is intraperitoneally administered through injection or orally administered using a sonde, every second day starting from 2nd day after the intravenous injection of the suspension. In this connection, only cotton seed oil is administered to the control group of animals. The lungs are extracted from these animals on the 15th day after the injection of the B16 melanoma cells, the lungs are examined to determine the number of cancer lesions thus metastasized to thus calculate the rate of metastasis-inhibition. The tumor cell-metastasis-inhibitory effect of each test sample is evaluated on the basis of the resulting rate of metastasis-inhibition.
Tests for evaluating the malignant melanoma metastasis-inhibitory effect of each test sample were conducted according to the following method. Whister female rats (6-week-old; average body weight: 160 g) were preliminarily bred with a powdery feed preparation having a composition of AIN-93 for one week, these animals were divided into 5 groups (8 animals per group) so as to equalize the average body weight and then a previously prepared suspension of B16 melanoma cells was intravenously injected into each rat. Subsequently, these animals were bred with a powdery feed preparation having a composition of AIN-93 and cotton seed oil in which each of maslinic acid, erythrodiol, ursolic acid, uvaol, betulinic acid, betulin, compounds of Synthetic Examples 1 and 2, or oleanolic acid had been dissolved in a predetermined concentration was intraperitoneally injected into each animal or orally administered thereto using a sonde, every other day starting from the 2nd day after the injection of the B 16 melanoma cells. In this connection, only cotton seed oil was administered to the control group. On the 15th day after the injection of the B 16 melanoma cells, the lung of each animal was taken out, the lungs were examined to determine the number of cancer lesions thus metastasized and to thus calculate the rate of metastasis-inhibition in accordance with the following equation 2. The tumor cell-metastasis-inhibitory effect of each test sample could be evaluated on the basis of the resulting rate of metastasis-inhibition.
Rate of Metastasis-Inhibition (%)=[(D−C)/D]×100
Wherein C: Average number of cancer lesions metastasized observed in each animal group; and D: average number of cancer lesions metastasized observed in the control group.
Maslinic acid, erythrodiol, ursolic acid, uvaol, betulinic acid, betulin and physiologically acceptable salts thereof or derivatives thereof as well as cotton seed oil as the control were inspected for the rate of metastasis-inhibition (RMI) using the dose and administration methods specified in the following Table 2. In addition, the same procedures used above were repeated except for using oleanolic acid as a comparative sample to thus evaluate the rate of metastasis-inhibition (RMI) thereof.

The mark [1] stands for this setting: Mus musculus, B16, 144 h, 15 ppm, viable cell count vs control on 6th day, read-out: Cell Growth Rate.
[2] abbreviates: Mus musculus, B16, 144 h, 25 ppm, viable cell count vs control on 6th day, read-out: Cell Growth Rate.
[3] abbreviates: Mus musculus, B16, 144 h, 50 ppm, viable cell count vs control on 6th day.
The mark [4] stands for this setting: 5 ppm, viable cell count vs control on 6th day.
Where [5] appears, read: 10 ppm, viable cell count vs control on 6th day.
Setting [6] is: 15 ppm, viable cell count vs control on 6th day.
[7] abbreviates: 20 ppm, viable cell count vs control on 6th day.
[8] abbreviates: 25 ppm, viable cell count vs control on 6th day.
Setting [9] is: 50 ppm, viable cell count vs control on 6th day.
The mark [10] stands for this setting: 30 ppm, viable cell count vs control on 6th day.
[11] abbreviates: 40 ppm, viable cell count vs control on 6th day.

Consider `CC1(C)CC[C@]2(CO)CC[C@]3(C)C(=CC[C@@H]4[C@@]5(C)CC[C@H](O)C(C)(C)[C@@H]5CC[C@]43C)[C@@H]2C1` [Erythrodiol], for which the activity at 5 ppm in the test with B-16 melanoma cells (Mus musculus, B16, 144 h, 5 ppm, viable cell count vs control on 6th day, read-out: Cell Growth Rate) was 73%. For the same compound, in the test with B-16 melanoma cells (setting [1]), the activity at 15 ppm was determined as 69%. Further, in the test on B-16 melanoma cells (setting [2]), the activity at 25 ppm was 53%. This compound showed an activity at 50 ppm in the test on B-16 melanoma cells (setting [3]) of 43%. The “tumor cell-proliferation-inhibitory effect (in words)” value in the test on B-16 melanoma cells is “quite strong tumor cell-proliferation-inhibitory effects”. Further, the “RMI (rate of metastasis-inhibition)” value in the test on B16 melanoma cells (100 mg/body wt. (kg)) amounted to 56.3%. For the same compound, the “tumor cell-metastasis-inhibitory effect compared with the control group (in words)” value in the test with B16 melanoma cells (metastasis of cancer to lung, summary of Table 2) is on record as “significantly (P<0.05) inhibit any metastasis of cancer to lung”.

For the compound `CC1(C)CC[C@]2(C(=O)O)CC[C@]3(C)C(=CC[C@@H]4[C@@]5(C)C[C@@H](O)[C@H](O)C(C)(C)[C@@H]5CC[C@]43C)[C@@H]2C1` [Purified maslinic acid 1, maslinic acid], the “Cell Growth Rate” value with B-16 melanoma cells (setting [4]) is given as 67%; in the test on B-16 melanoma cells (setting [5]), 43%; in the test on B-16 melanoma cells (setting [6]), 6%; with B-16 melanoma cells (setting [7]) it was 0%; in the test on B-16 melanoma cells (setting [8]), 0%. The “RMI (rate of metastasis-inhibition)” value in the test with B16 melanoma cells (50 mg/body wt. (kg)) is 61.4%.

On to `C=C(C)[C@@H]1CC[C@]2(COC(C)=O)CC[C@]3(C)[C@H](CC[C@@H]4[C@@]5(C)CC[C@H](OC(C)=O)C(C)(C)[C@@H]5CC[C@]43C)[C@@H]12` [Comp. Of Synthetic Ex. 9, 3,28-O-di-acetyl-betulin], for which the “Cell Growth Rate” value in the test with B-16 melanoma cells (setting [4]) worked out at 100%; in the test on B-16 melanoma cells (setting [6]), 79%; with B-16 melanoma cells (setting [8]), 68%; in the test with B-16 melanoma cells (setting [9]), 60%.

As to `CC(=O)OCC12CCC(C)(C)CC1C1=CCC3C4(C)CCC(OC(C)=O)C(C)(C)C4CCC3(C)C1(C)CC2` (centres unmarked) [Comp. Of Synthetic Ex. 5, 3,28-O-di-acetyl-erythrodiol], the “Cell Growth Rate” value with B-16 melanoma cells (setting [4]) worked out at 68%; in the test on B-16 melanoma cells (setting [5]), 50%; in the test on B-16 melanoma cells (setting [6]) it was 23%; in the test on B-16 melanoma cells (setting [7]), 0%; in the test on B-16 melanoma cells (setting [8]), 0%.

For the compound `CCOC(=O)[C@]12CC[C@@H](C)[C@H](C)[C@H]1C1=CC[C@@H]3[C@@]4(C)CC[C@H](O)C(C)(C)[C@@H]4CC[C@@]3(C)[C@]1(C)CC2` [Comp. Of Synthetic Ex. 6, ursolic acid ethyl ester], the “Cell Growth Rate” value with B-16 melanoma cells (setting [4]) came to 79%; with B-16 melanoma cells (setting [6]), 72%; with B-16 melanoma cells (setting [8]), 58%; in the test with B-16 melanoma cells (setting [9]), 47%.

As for “2,3-O-di-stearoyl-maslinic acid ethyl ester [Comp. Of Synthetic Ex. 4]”, the “Cell Growth Rate” value was 100% with B-16 melanoma cells (setting [4]); 82% with B-16 melanoma cells (setting [5]); 52% in the test with B-16 melanoma cells (setting [6]); 13% with B-16 melanoma cells (setting [7]); 0% in the test with B-16 melanoma cells (setting [8]).

Regarding `C=C(C)[C@@H]1CC[C@]2(C)CC[C@]3(C)[C@H](CC[C@@H]4[C@@]5(C)CC[C@H](O)C(C)(C)[C@@H]5CC[C@]43C)[C@@H]12` [Lupeol, lupeol, reference compound], the activity at 15 ppm with B-16 melanoma cells (setting [1]) came to 100%. Further, in the test with B-16 melanoma cells (Mus musculus, B16, 144 h, 20 ppm, viable cell count vs control on 6th day, read-out: Cell Growth Rate), the activity at 20 ppm was 100%. The activity at 25 ppm in the test with B-16 melanoma cells (setting [2]) came to 100%. Moreover, the activity at 30 ppm with B-16 melanoma cells (Mus musculus, B16, 144 h, 30 ppm, viable cell count vs control on 6th day) was determined as 100%. Moreover, the activity at 40 ppm in the test with B-16 melanoma cells (Mus musculus, B16, 144 h, 40 ppm, viable cell count vs control on 6th day) came to 100%. The activity at 50 ppm in the test with B-16 melanoma cells (setting [3]) was found to be 100%. Moreover, in the test with B-16 melanoma cells, the “tumor cell-killing effect (in words)” value was “not observed” and the “tumor cell-proliferation-inhibitory effect (in words)” value was “do not possess any tumor cell-proliferation-inhibitory effect at all”.

As to `CC(=O)OC[C@]12CC[C@@H](C)[C@H](C)[C@H]1C1=CC[C@@H]3[C@@]4(C)CC[C@H](OC(C)=O)C(C)(C)[C@@H]4CC[C@@]3(C)[C@]1(C)CC2` [Comp. Of Synthetic Ex. 7, 3,28-O-di-acetyl-uvaol], the “Cell Growth Rate” value in the test on B-16 melanoma cells (setting [4]) was determined as 85%; in the test on B-16 melanoma cells (setting [6]), 71%; in the test with B-16 melanoma cells (setting [8]), 54%; in the test with B-16 melanoma cells (setting [9]), 42%.

On to `C=C(C)[C@@H]1CC[C@]2(C(=O)OCC)CC[C@]3(C)[C@H](CC[C@@H]4[C@@]5(C)CC[C@H](O)C(C)(C)[C@@H]5CC[C@]43C)[C@@H]12` [Comp. Of Synthetic Ex. 8, betulinic acid ethyl ester], for which the “Cell Growth Rate” value was found to be 96% with B-16 melanoma cells (setting [4]), 81% in the test on B-16 melanoma cells (setting [6]), 69% in the test on B-16 melanoma cells (setting [8]) and 53% in the test with B-16 melanoma cells (setting [9]).

For “2,3-O-di-triethylsilyl-maslinic acid triethylsilyl ester [Comp. Of Synthetic Ex. 3]”, the “Cell Growth Rate” value in the test on B-16 melanoma cells (setting [4]) amounted to 93%; in the test on B-16 melanoma cells (setting [5]), 75%; in the test with B-16 melanoma cells (setting [6]) it was 54%; in the test on B-16 melanoma cells (setting [7]), 21%; with B-16 melanoma cells (setting [8]), 0%.

Regarding `C[C@H]1[C@H](C)CC[C@]2(C)CC[C@]3(C)C(=CC[C@@H]4[C@@]5(C)CC[C@H](O)C(C)(C)[C@@H]5CC[C@]43C)[C@H]12` [α-Amyrin, α-amyrin, reference compound], the “Cell Growth Rate” value in the test on B-16 melanoma cells (setting [6]), with B-16 melanoma cells (setting [7]), in the test on B-16 melanoma cells (setting [8]), in the test with B-16 melanoma cells (setting [10]), in the test with B-16 melanoma cells (setting [11]) and in the test with B-16 melanoma cells (setting [9]) was 100% in each case. Besides, the “tumor cell-killing effect (in words)” value in the test with B-16 melanoma cells is “not observed”. Moreover, in the test on B-16 melanoma cells, the “tumor cell-proliferation-inhibitory effect (in words)” value is reported as “do not possess any tumor cell-proliferation-inhibitory effect at all”.

As to `CC1(C)CC[C@]2(C)CC[C@]3(C)C(=CC[C@@H]4[C@@]5(C)CC[C@H](O)C(C)(C)[C@@H]5CC[C@]43C)[C@@H]2C1` [β-Amyrin, β-amyrin, reference compound], the “Cell Growth Rate” value in the test with B-16 melanoma cells (setting [6]), in the test with B-16 melanoma cells (setting [7]), in the test on B-16 melanoma cells (setting [8]), with B-16 melanoma cells (setting [10]), with B-16 melanoma cells (setting [11]) and in the test on B-16 melanoma cells (setting [9]) was 100% each time. For the same compound, the “tumor cell-killing effect (in words)” value with B-16 melanoma cells is “not observed”. For the same compound, the “tumor cell-proliferation-inhibitory effect (in words)” value in the test with B-16 melanoma cells was “do not possess any tumor cell-proliferation-inhibitory effect at all”.
